Source: patent publication US20220184394A1, “STATE-DEPENDENT PUDENDAL NERVE STIMULATION FOR BLADDER CONTROL” (Duke University, priority 2017, published 2022)
Entries after “also recorded” stand apart in the source; their conditions may differ. Read-outs that look alike come from different tables or passages of the source.

Columns and labels:
bladder [1] = details: intravesical PGE2, rats; cited from earlier work
bladder [2] = details: PGE2 given to healthy women; cited from earlier work
bladder [3] = experiment: Single-fill cystometry with intravesical PGE2 (model of OAB) in anesthetized rats; assay type: in vivo, Female Wistar rats; details: intravesical 100 μM PGE2 vs saline control
Description: Female Wistar rats (n=18) weighing between 237 and 296 g were anesthetized with urethane (1.2 g/kg SC, supplemented as necessary). Body temperature was monitored using an esophageal temperature probe and maintained at 36-38° C. with a water blanket. Heart rate and arterial blood oxygen saturation levels were monitored using a pulse oximeter (Nonin Medical Inc., 2500 A VET).
For cystometrogram (CMG) measurements, the bladder was exposed via a midline abdominal incision. A PE-90 catheter, the tip of which was heated to create a collar, was inserted into the bladder lumen through a small incision in the apex of the bladder dome and secured with a 6-0 silk suture. The abdominal wall was closed in layers with 3-0 silk suture. […]
The bladder was filled continuously with physiological saline at room temperature (2-8 ml/hr) using an infusion pump with an open urethra for at least 45 minutes during post-surgical recovery. The bladder was subsequently emptied and cystometrograms (CMGs) recorded. […] Voided and residual volumes were recorded and used to calculate bladder capacity and voiding efficiency. […] For these trials, voiding efficiency was calculated as the first voided volume divided by the bladder capacity, and “reflex” voiding efficiency was calculated as the sum of the two voided volumes divided by the bladder capacity. […]

## CCCCC[C@H](O)/C=C/[C@H]1[C@H](O)CC(=O)[C@@H]1C/C=C\CCCC(=O)O [PGE2, Prostaglandin E2]
Bladder [1]
  Bladder capacity: reduces bladder capacity
Bladder [2]
  Bladder capacity: reduced bladder capacities
  Urgency sensation: a strong urgency sensation
Bladder [3]; n=9, p<0.001
  Voiding efficiency: increased voiding efficiency; also recorded: Voiding efficiency increased
Bladder [3]; urethane-anesthetized, n=9, p=0.02
  Bladder capacity: consistently reduced bladder capacity; also recorded: decreased bladder capacity; also recorded: Bladder capacity decreased
